The results in this text go back to ChEMBL document CHEMBL3797139, “Synthesis and biological evaluation of 1,2-dithiol-3-thiones and pyrrolo[1,2-a]pyrazines as novel hypoxia inducible factor-1 (HIF-1) inhibitor” (Bioorg Med Chem, 2016).

Activity calls are given as the source filed them. The calls are words filed in the database; no cut-off is given here.

The inhibition is how much of the control response was suppressed.

The subject of data set [1] is HCT-116. As to the kind of experiment: Reduction of insulin-induced HIF-1 alpha expression in human HCT116 cells at 10 uM by western blot analysis. The format is functional. The note with it: for inhibition at 10 µM: Homo sapiens, HCT-116. For orientation: A western blot detects proteins with antibodies after separation by electrophoresis.
A short description of data set [2]: Cytotoxicity against human HCT116 cells at 10 uM. It is filed as cell-based. The note with it: hct-116, 10 µM.
Data set [3] deals with HCT-116. Description: Reduction of insulin-induced HIF-1 alpha expression in human HCT116 cells at 30 uM by western blot analysis. It is filed as functional.
A short description of data set [4]: Cytotoxicity against human HCT116 cells at 30 uM. The format is cell-based. As to conditions: hct-116, 30 µM.
In data set [5] the test system is HCT-116. As to the kind of experiment: Reduction of insulin-induced HIF-1 alpha expression in human HCT116 cells at 3 uM by western blot analysis. It is filed as functional, cell-based.
The nature of data set [6]: Cytotoxicity against human HCT116 cells at 3 uM. The format is cell-based. The note with it: hct-116, 3 µM.
Data set [7] has as its system HCT-116. Description: Reduction of insulin-induced HIF-1 alpha target gene expression in human HCT116 cells assessed as decrease in VEGF expression at 10 uM by RT-PCR analysis. It is filed as functional.
For data set [8], the system named is HCT-116. As to the kind of experiment: Reduction of insulin-induced HIF-1 alpha target gene expression in human HCT116 cells assessed as decrease in Glut-1 expression at 10 uM by RT-PCR analysis. It is filed as functional. The note with it: for inhibition at 10 µM: Homo sapiens, HCT-116.
Data set [9] relates to HCT-116. As to the kind of experiment: Reduction of insulin-induced HIF-1 alpha target gene expression in human HCT116 cells assessed as decrease in Glut-1 expression at 30 uM by RT-PCR analysis. The format is functional.
Data set [10] has as its system HCT-116. As to the kind of experiment: Reduction of insulin-induced HIF-1 alpha target gene expression in human HCT116 cells assessed as decrease in VEGF expression at 30 uM by RT-PCR analysis. It is filed as functional.

Turning to `CSc1c(SC)c2cnccn2c1SC.Cl`, the inhibition at 10 µM with HCT-116 [1] worked out at 6%. The Activity result in data set [2] was “Non-toxic”.

In turn, `CCCCc1c(-c2cnccn2)ssc1=S` returned an inhibition at 30 µM in the data set with HCT-116 [3] of 80%. For the same compound, the Activity entry in [4] is on record as “Non-toxic”.

Consider `S=c1cc(-c2cnccn2)ss1`, for which, in [4], the Activity entry is recorded as “Toxic”.

For the compound `CC[C@@]1(O)C(=O)OCc2c1cc1n(c2=O)Cc2cc3c(CN(C)C)c(O)ccc3nc2-1` [TOPOTECAN], in the data set with HCT-116 [5], the inhibition result was “Active”. In [6], the Activity result is reported as “Non-toxic”.

For the compound `CSc1c(Cc2ccc(C)cc2)c(SC)n2ccncc12.Cl`, the Activity entry in [2] is listed as “Toxic”.

Take `S=c1ssc(-c2cnccn2)c1CCc1ccccc1`: the inhibition at 30 µM in the data set on HCT-116 [3] was determined as 65%. Further, the Activity entry in [4] is “Non-toxic”.

For `S=c1ssc(-c2cnccn2)c1Cc1ccc(Cl)cc1`, the Activity entry in [4] is listed as “Non-toxic”.

As for `CSc1c(-c2ccccc2)c(SC)n2ccncc12.Cl`, at 10 µM the inhibition with HCT-116 [1] was 3%. The inhibition result in the data set with HCT-116 [7] and with HCT-116 [8] was “Active” in each case. In addition, the Activity result in data set [2] is “Non-toxic”.

Regarding `CSc1c(Cc2ccccc2)c(SC)n2ccncc12.Cl`, the inhibition at 10 µM was determined as 81% in the data set on HCT-116 [1], 77% with HCT-116 [7] and 92% in the data set on HCT-116 [8]. The Activity result in data set [2] was “Non-toxic”.

Take `CSc1c(Cc2ccc(Cl)cc2)c(SC)n2ccncc12.Cl`: in data set [2], the Activity result is given as “Toxic”.

As for `CSc1c(C)c(SC)n2ccncc12` [listing 1 of 2 here], the inhibition result in the data set on HCT-116 [7] is “inactive”.

Regarding `OCc1ccc(-c2nn(Cc3ccccc3)c3ccccc23)o1`, the inhibition result in the data set on HCT-116 [5] was “Active”. Besides, the Activity entry in data set [6] is given as “Non-toxic”.

As for `Cc1c(-c2cnccn2)ssc1=S` [OLTIPRAZ], the inhibition at 30 µM with HCT-116 [9] was 59%; in the data set on HCT-116 [10], 36%; in the data set with HCT-116 [3], 48%. The Activity result in [4] is recorded as “Non-toxic”.

For the compound `COc1ccc(Cc2c(-c3cnccn3)ssc2=S)cc1`, in [4], the Activity entry is “Non-toxic”.

Take `S=c1ssc(-c2cnccn2)c1-c1ccccc1`: the inhibition result in the data set on HCT-116 [9] and with HCT-116 [10] was “Active” in each case. This compound registered an inhibition at 30 µM with HCT-116 [3] of 8%. In [4], the Activity result was “Non-toxic”.

Regarding `CCCCc1c(SC)c2cnccn2c1SC.Cl`, the Activity entry in data set [2] is “Non-toxic”.

Consider `CSc1c(C)c(SC)n2ccncc12` [listing 2 of 2 here], for which the inhibition at 10 µM in the data set on HCT-116 [1] was found to be 37%; in the data set with HCT-116 [8], 14%.

`S=c1ssc(-c2cnccn2)c1Cc1ccccc1` gave an inhibition at 30 µM in the data set on HCT-116 [3] of 41%. Also, in data set [4], the Activity result was “Non-toxic”.

As for `CCCc1c(-c2cnccn2)ssc1=S`, the inhibition at 30 µM in the data set with HCT-116 [9] was 86%; with HCT-116 [10], 70%; in the data set with HCT-116 [3], 76%. Also, the Activity entry in data set [4] was “Non-toxic”.

In the data set with HCT-116 [1], `CCCc1c(SC)c2cnccn2c1SC.Cl` displayed an inhibition at 10 µM of 90%. In addition, the inhibition entry with HCT-116 [7] and with HCT-116 [8] was “Active” throughout. Besides, in [2], the Activity entry was “Non-toxic”.

Take `CSc1c(C)c(SC)n2ccncc12.Cl`: the results for the “inhibition (INH)” value in the data set on HCT-116 [1] and in the data set on HCT-116 [8] were 37% and 14%, respectively. The Activity entry in data set [2] was “Non-toxic”.

For `CCc1c(-c2cnccn2)ssc1=S`, the Activity result in data set [4] was “Non-toxic”.

`CCc1c(SC)c2cnccn2c1SC.Cl`: the inhibition at 10 µM with HCT-116 [1] worked out at 86%. For the same compound, in [2], the Activity entry is “Non-toxic”.

As for `Cc1ccc(Cc2c(-c3cnccn3)ssc2=S)cc1`, the Activity entry in data set [4] is “Non-toxic”.

Consider `CSc1cc(SC)n2ccncc12.Cl`, for which, in [2], the Activity result is on record as “Non-toxic”.

Take `COc1ccc(Cc2c(SC)c3cnccn3c2SC)cc1.Cl`: the Activity result in data set [2] is “Toxic”.

Compound `CSc1c(CCc2ccccc2)c(SC)n2ccncc12.Cl` registered an inhibition at 10 µM in the data set with HCT-116 [1] of 87%. Further, the Activity entry in data set [2] is reported as “Toxic”.
